According to EP0155094A1, “2-Arylimidazo(4,5-c)pyridines” (ELI LILLY AND COMPANY, priority 1984, dated 1985):
Structures can show the parent of a compound that is named as a salt.

Key:
[1] = test system: Isolated Cat Papillary Muscles; experiment: Positive inotropic activity in isolated cat papillary muscles; set-up: species or system Cats; conditions: Felis catus, maximum contractility, isolated cat papillary muscle, read-out: contractility, percent of control (control = 100 percent); for activity at 100 µM: 10^-4 M; for activity at 10 µM: 10^-5 M
Protocol: Cats of either sex were anesthetized with Metofane (1,1-difluoro-2,2-dichloroethyl methyl ether, Pittman-Moore) their hearts immediately removed and the papillary muscles dissected and suspended in individual organ baths. A platinum hook secured one end of the muscle to an electrode mounted in the bottom of the bath, and a silk thread attached the tendon to a Statham isometric transducer. The baths contained Krebs-Henseleit solution (36°C., bubbled with 95 percent oxygen - 5 percent carbon dioxide) of the following millimolar composition: NaCl, 118; KCl, 4.5; CaCl2, 2.5; KH2PO4, 1.1; MgS04, 1.2; NaHCO3, 25; and glucose, 11.
A base-line tension of 1.5 g. was applied to each muscle. Square-wave pulses (5.0 msec. in duration, 20 percent above threshold voltage) delivered through the hook electrode and a second electrode positioned near the top of the muscle evoked 12 contractions/minute, which were recorded on a Grass polygraph. After the muscles were equilibrated for 60 minutes, drugs were introduced in normal saline to bring the final concentration of the drug to 10 5 or 10^-4 molar. Increases in contractility were tabulated as millimeters of pen deflection in excess of the baseline values. In each experiment the maximum contractility was measured. As a percent of control (control = 100 percent), the compound of Example 1 produced a contractility of 149% at 10^-5 M and 168% at 10^-4 M and the compound of Example 2 gave a contractility of 240% at 10^-5M and 326% at 10^-4M.

cardiac contractility = experiment: Cardiac contractility in anesthetized dogs; assay type: in vivo, Mongrel dogs; conditions: Canis lupus familiaris, iv, i.v. bolus, read-out: ED50 (dose, i.v., which produced a peak increase of 50% over control)
Protocol: Mongrel dogs of either sex ranging in weight from 7 to 14 kg. were used. Anesthesia was induced with sodium pentobarbital (30 mg./kg., i.v.) and maintained with supplemental doses as required. A positive-pressure pump was used to ventilate the dogs through an endotracheal tube (18 strokes/minute, 20 ml./kg. stroke 1), and a heating pad kept the body temperature at 37-38°C. Femoral arterial blood pressure was measured through a polyethylene catheter filled with heparin solution (16 units/ml.) and connected to a Statham pressure transducer. A strain-gauge arch sutured to the right ventricle of the heart measured cardiac contractility. Tension on the gauge was adjusted to 50 g. and the gain of the recorder (Beckman dynograph) was set so that 50 g. caused a 10-mm. pen deflection; cardiac contractile tension was measured as millimeters of pen deflection or grams of tension. The drug was administered following a 30-45 minute equilibrium period as an i.v. bolus (2-5 ml.) in a normal saline vehicle. […] The maximum effects on contractility at various dose levels were calculated as a percent of control (control = 100 percent). The compound of Example 1 produced an ED50 (dose, i.v., which produced a peak increase of 50% over control) of 0.030 mg./kg. while the compound of Example 2 gave an ^ED50 of 6 mcg./kg.

| Compound | activity at 100 µM [1] [%] | activity at 10 µM [1] [%] | ED50 (cardiac contractility) [mg/kg] |
| --- | --- | --- | --- |
| COc1cc(NS(C)(=O)=O)ccc1-c1nc2cnccc2[nH]1 [Example 1, 2-(2-Methoxy-4-methylsulfonamidophenyl)imidazo[4,5-c]pyridine] | 168 | 149 | 0.03 |
| COc1cc(OS(C)(=O)=O)ccc1-c1nc2cnccc2[nH]1 [Example 2, 4-(Imidazo[4,5-c]pyridin-2-yl)-3-methoxyphenol, methanesulfonate (ester) hydrochloride] | 326 | 240 | 0.006 |
